Measurements: article PMC12229680, “Neuroprotective and intraocular pressure lowering effects of dual-functional memantine nitrate MN-08 on the experimental models of glaucoma” (Scientific Reports, 2025)

Assays:
[1] = system: preclinical models and glaucoma patients; parameters: method as in PMID 25488946, PMID 28234563, PMID 21396362; conditions: cited from earlier work
[2] = system: carbomer-induced glaucoma rabbit model; test: Carbomer-induced experimental glaucoma model in rabbits (IOP); format: in vivo; conditions: latanoprost 0.005% single topical instillation; 0-360 min
Description: The methods were performed as previously described. New Zealand rabbits were anesthetized using an auricular vein injection of 60 mg/kg pentobarbital sodium. Local anesthesia of the corneas was achieved using tetracaine hydrochloride, followed by pupil dilation with tropicamide. An experimental glaucoma model was established by bilaterally injecting 0.25% carbomer (0.1 mL) into the anterior eye chamber of the rabbits. On the fifth day post-carbomer injection, stable high IOP was induced in the rabbits. MN-08 (0.5%, 0.2%, 0.1%, and 0.02%) or latanoprost (0.005%) was administered with a single topical instillation. IOP was measured continuously at 0, 30, 60, 120, 240, and 360 min following instillation with MN-08 or latanoprost (with 5 consecutive measurements being averaged to obtain a single value). At the last IOP measurement, the rabbits were euthanized under sodium pentobarbital anesthesia (100 mg/kg, i.v).

[3] = system: human trabecular meshwork cells (HTMCs); test: cGMP ELISA assay in HTMCs; format: cell-based; conditions: 30 min
Description: Primary human trabecular meshwork cells (HTMCs) were isolated from the juxtacanalicular and corneoscleral regions of the human eye from ScienCell Research Laboratories (ScienCell, Carlsbad, CA). HTMCs were maintained in a complete medium consisting of DMEM enriched with 10% fetal bovine serum (FBS) and antibiotics (100 U/ml penicillin and 100 μg/ml streptomycin). Cells were cultured in a humidified incubator containing 5% CO2 at 37 °C. Experiments are conducted using HTMCs between the 5th and 8th passages to avoid cellular senescence. All reagents were obtained from Gibco (San Diego, CA, USA).
HTMCs were seeded at a density of 2 × 10^5 cells per well in 6-well plates. When reaching 80% confluency, the cells were subsequently incubated overnight in low-serum medium (DMEM supplemented with 0.5% FBS). […] After incubating, cells were harvested and lysed, and the levels of cGMP were detected by an ELISA kit (Abcam Corporation, Cambridge, UK). The procedure was conducted following the instructions provided by the manufacturer.

[4] = system: retinal ganglion cells (RGCs) in retinal ischemia–reperfusion injury rats; test: Retinal ischemia–reperfusion injury model in rats (HE staining, Brn-3a immunofluorescence); format: in vivo, rat; conditions: Memantine 10 mg/kg tail vein, vs Model group
Description: Male Sprague Dawley rats were anesthetized with pentobarbital sodium (30 mg/kg, i.p.). Local anesthesia was administered to the corneas using tetracaine hydrochloride, followed by pupil dilation with tropicamide. A 30-gauge infusion needle was inserted into the anterior chamber of the eye and connected to a normal saline reservoir until the iris turned white. Retinal ischemia was maintained for 1 h at IOP of 110 mmHg. Upon careful withdrawal of the needle, IOP returned to normal, thereby inducing retinal ischemia–reperfusion injury. MN-08 (12 mg/kg) and Memantine (10 mg/kg) were administered via tail vein injection at 3 and 6 h post-surgery and continued twice daily for the subsequent two days. […]
Rats were euthanized by deep anesthetization with pentobarbital sodium (100 mg/kg, i.p.), and their eyes were enucleated for histology analysis. […] Ganglion cell complex (GCC) thickness and the RGCs numbers (retinal ganglion cell layer) were measured and analyzed with ImageJ software.
Eyes of sacrificed rats were rapidly removed; the cornea was cut along the corneoscleral rim after rinsing with PBS under the microscope. […] RGCs were observed using a fluorescence microscope (Olympus, Tokyo, Japan). The number of Brn-3a positive cells was counted manually in five randomly selected fields of view for each region of the whole-mount retina (including the center, mid-periphery, and periphery).

[5] = system: glaucoma patients; conditions: cited from earlier work

## O=C(CCC/C=C\C[C@@H]1[C@@H](CC[C@@H](O)CCc2ccccc2)[C@H](O)C[C@@H]1O)OCCCCO[N+](=O)[O-] [Latanoprostene bunod (LBN), Latanoprostene bunod]
[1]
  reduction in IOP compared to latanoprost: great reduction

## CC(C)OC(=O)CCC/C=C\C[C@@H]1[C@@H](CC[C@@H](O)CCc2ccccc2)[C@H](O)C[C@@H]1O [latanoprost]
[2]
  carbomer-induced IOP elevation (change from baseline): reduced
[3]; latanoprost 0.1 μM
  cGMP levels: neither latanoprost (0.1 μM) nor memantine (10 μM) had any statistically significant effects

## CC12CC3CC(C)(C1)CC(N)(C3)C2 [Memantine]
[4]; 3 and 6 h post-surgery then twice daily for two days
  degree of retinal damage (HE staining): reduced
[4]
  survival of RGCs (Brn-3a positive cells): significantly increased
[3]; memantine 10 μM
  cGMP levels: neither latanoprost (0.1 μM) nor memantine (10 μM) had any statistically significant effects
[5]; clinical trials
  glaucoma progression: failed to significantly delay
[5]; phase 3 clinical trial
  effect in protecting visual function: no significant effect
